US6518262B1, “22R-hydroxycholesta-8, 14-diene derivatives for the inhibition of meiosis” (Akzo Nobel N.V., priority 1999, dated 2003)

What was measured:
[1] = system: cultured cumulus enclosed and naked mouse oocytes; details: cited from earlier work
denuded oocytes (DO) = assay: Oocyte assay, agonistic testing, denuded oocytes (DO assay); format: cell-based, mice (B6D2-F1, strain C57BL×DBA); details: hypoxanthine medium, 22 hours culture, control value in brackets
Description: (§1) Oocytes arrested in meiosis contain diffused chromosomes which are surrounded by an intact nuclear envelope known as the germinal vesicle (GV). Upon reinitiation of meiosis by the midcycle gonadotropin surge, the chromosomes recondense and the GV breaks down (GVBD). In vivo, the oocyte is exposed to hypoxanthine (HX), which maintains the oocyte arrested in the meiotic prophase. This meiotic arrest can be mimicked in vitro by addition of hypoxanthine to the culture medium. The agonistic activity of meiosis activating substances is measured as the ability to overcome the hypoxanthine maintained meiotic arrest in denuded oocytes (DO) or cumulus enclosed oocytes (CEO), i.e. as the ability to induce meiotic resumption in vitro.
(§2) Ovaries are obtained from immature female mice (B6D2-F1, strain C57BL×DBA). At the age of 19, 20 or 21 days the mice are injected subcutaneously with a single dose of 20 IU follicle stimulating hormone (Humegon, Organon, The Netherlands) in saline.
Forty-eight hours after follicle stimulating hormone injection mice are killed by cervical dislocation. The ovaries are removed, freed of extraneous tissue and placed in a multidish containing 0.5 ml preparation medium at 37° C. L-15 Leibovitz medium (Gibco, pH 7.3±0.1) supplemented with bovine serum albumin (3 mg·ml^−1), L-glutamine (0.23 mM), sodium pyruvate (2 mM) and hypoxanthine (4 mM) is used as preparation medium. The antral follicles of the ovaries are punctured under a dissecting microscope using two 27-gauge needles attached to two 1 ml syringes. Cumulus enclosed oocytes (CEO) of uniform size are selected with a mouth-controlled pipette and rinsed in 0.5 ml fresh preparation medium. About 20 CEO are obtained from one ovary.
Oocytes freed from cumulus cells, i.e. denuded oocytes (DO), are obtained by gently flushing CEO through a fine-bore mouth-controlled pipette. DO were collected in fresh MEM alpha medium, containing bovine serum albumin (3 mg·ml^−1), L-glutamine (0.23 mM), sodium pyruvate (2 mM) and hypoxanthine (4 mM), and washed twice before transfer to the test medium.
(§3) The oocyte assay is performed in 3 blocks, each block represents the ovaries of one mouse (randomized block design). […] At t=0 the number of oocytes with intact germinal vesicles (GV) or germinal vesicle break-down (GVBD) is counted under an inverted microscope with differential interference contrast equipment. […] At the end of the culture period the number of oocytes with GV or GVBD per group is counted. For statistical analysis the percentage germinal vesicle breakdown is calculated for each group in one block. These percentages are subjected to arcsin transformation, and differences between control and test compounds are analyzed by an ANOVA test for a randomized block design. […]

[2] = system: cumulus enclosed oocytes (CEO); assay: Oocyte assay, agonistic testing, cumulus enclosed oocytes (CEO assay); format: cell-based, mice (B6D2-F1, strain C57BL×DBA); details: hypoxanthine medium, 22 hours culture, control value in brackets
Description: as §1, §2
Forty-eight hours after follicle stimulating hormone injection mice are killed by cervical dislocation. The ovaries are removed, freed of extraneous tissue and placed in a multidish containing 0.5 ml preparation medium at 37° C. L-15 Leibovitz medium (Gibco, pH 7.3±0.1) supplemented with bovine serum albumin (3 mg·ml^−1), L-glutamine (0.23 mM), sodium pyruvate (2 mM) and hypoxanthine (4 mM) is used as preparation medium. […]
as §3

CC(C)=CCC[C@@H](C)[C@H]1CC[C@H]2C3=C(CC[C@]12C)[C@@]1(C)CC[C@H](O)C(C)(C)[C@@H]1CC3 [(3β,5α,20R)-4,4-dimethylcholesta-8,24-dien-3-ol]
activation of the resumption of meiosis [1]: able to activate the resumption of meiosis

CC(C)=CC[C@H](O)[C@@H](C)[C@H]1CC=C2C3=C(CC[C@@]21C)[C@@]1(C)CC[C@H](O)C(C)(C)[C@@H]1CC3 [22S-hydroxy-FF-Mas, (3β,5α,20S,22S)-4,4-dimethylcholesta-8,14,24-triene-3,22-diol]
% GVBD DO assay exp. (denuded oocytes (DO); compound 5 μM): 97(2) % | % GVBD CEO assay exp. ([2]; compound 5 μM): 73(2) %

CC(C)=CCC[C@@H](C)[C@H]1CC=C2C3=C(CC[C@@]21C)[C@@]1(C)CC[C@H](O)C(C)(C)[C@@H]1CC3 [FF-Mas, (3β,5α,20R)-4,4-dimethylcholesta-8,14,24-trien-3-ol]
% GVBD DO assay exp. (denuded oocytes (DO); compound 10 μM): 84(7) % | activation of the resumption of meiosis [1]: able to activate the resumption of meiosis | % GVBD CEO assay exp. ([2]; compound 10 μM): 0(0) %
